# Data: patent US20240309014A1, “MACROCYCLIC COMPOUNDS AND USES THEREOF” (President and Fellows of Harvard College, priority 2017, published 2024)
# Legend:
# [1] = tested on: HSC-2-Luc inoculated into tongue; experiment: HSC-2 orthotopic transplantation mouse model; format: in vivo, nude mice; conditions: for ILS (%): Compound (1) 0.09 mg/kg
# [2] = tested on: KPL-4 subcutaneous xenograft; experiment: KPL-4 xenograft model as monotherapy (FIG. 12); format: in vivo, nude mice
# Description: A human HER-2 positive breast cancer cell line KPL-4, which had been cultured in a DMEM containing 10% FBS, and penicillin-streptomycin, was adjusted to a concentration of 1×10^8 cells/mL with Hanks' Balanced Salt Solution to prepare a cell suspension. The cell suspension was inoculated in a volume of 100 μL into a subcutaneous part of a right flank of nude mice, 8 weeks of ages (CAnN.Cg-Foxnlnu/CrlCrlj, female, Charles River Laboratories Japan Inc.). Eleven days after cell inoculation (Day 1), the shortest diameter and the longest diameter of a tumor in each mouse were measured by using an electronic digital caliper (Digimatic™ caliper, Mitutoyo Corporation), so as to calculate the volume of the tumor in accordance with the following calculation formulae: […]
# On the basis of the volumes of tumors obtained on Day 1, the mice were grouped such that averages of the tumor volumes were substantially equal among the groups. The experiment was conducted on groups each consisting of six mice. The test compound was dissolved in DMSO and a solution was stored in the freezer before use. Immediately before the administration, the stock solution was diluted with saline. The test compound in saline was intravenously once-weekly administered at 20 μg/kg, 60 μg/kg, or 180 μg/kg for 2 weeks (on Day 1 and Day 8).
# [3] = tested on: α-SMA-positive CAFs in FaDu tumor; experiment: Effect on α-SMA-positive CAFs in the FaDu subcutaneous model (FIG. 14); format: in vivo, nude mice
# Description: A human squamous cell carcinoma of the head and neck (SCCHN) cell line FaDu, which had been cultured in an RPMI-1640 medium containing 10% FBS, and penicillin-streptomycin (culture medium), was adjusted to a concentration of 5×10^7 cells/mL with culture medium to prepare a cell suspension. The cell suspension was inoculated in a volume of 100 μL into a subcutaneous part of a right flank of nude mice, 6 weeks of ages (CAnN.Cg-Foxnlnu/CrlCrlj, female, Charles River Laboratories Japan, Inc.). Ten days after cell inoculation, the mice were grouped such that averages of the tumor volumes were substantially equal among the groups. The experiment was conducted on groups each consisting of 5 mice. Each test compound was dissolved in DMSO and a solution was stored in the freezer before use. Immediately before the administration, the stock solution was diluted with saline. The test compound in saline was intravenously administered at 20 μg/kg, 60 μg/kg, or 180 μg/kg. […] The area of α-SMA-positive region in the whole tumor was quantified by counting the α-SMA-positive objects using inform 2 software (PerkinElmer Inc.) Area of the tumor region was measured by assessing the hematoxylin-staining area using inform 2 software (PerkinElmer Inc.). […] A suppression rate of the α-SMA- positive area of the test compound-dosing group was calculated with the below formula: […]
# [4] = tested on: human bladder carcinoma cell line UM-UC-3; experiment: Bladder carcinoma cell line growth inhibition assay, UM-UC-3; format: cell-based; conditions: UMUC3, 72 h, 3 days incubation, CellTiter-Glo 2.0
# Description: In this assay, the growth inhibitory activity of Compound (1) in human bladder carcinoma cell lines RT4, RT112/84, and UM-UC-3 was measured. RT4 and RT112/84 cells were maintained in a RPMI-1640 (FUJIFILM Wako Pure Chemical Corporation, 189-02025) medium containing 10% fetal bovine serum (FBS: SIGMA Life Science, 172012-500ML), and penicillin and streptomycin (FUJIFILM Wako Pure Chemical Corporation, 168-23191) in a 5% CO2 incubator (37° C.). UM-UC-3 cells were maintained in an E-MEM (FUJIFILM Wako Pure Chemical Corporation, 051-07615) medium containing 10% FBS, 1 mM Sodium Pyruvate (FUJIFILM Wako Pure Chemical Corporation, 190-14881), and penicillin and streptomycin in a 5% CO2 incubator (37° C.). To each well of a 96 well plate (Coming, 3904), 90 μL of each cell suspension adjusted to a concentration of 5.55×10^3 cells/mL (RT4 or UM-UC-3) or 3.33×10^4 cells/mL (RT112/84) with the culture medium was added, and the cells were incubated overnight in a 5% CO2 incubator (37° C.). On the next day, 10 μL of Compound (1) in three-fold dilution series suspended in the culture medium was added to each well, and the resultant was incubated for 3 days in a 5% CO2incubator (37° C.). Then, cell viability was determined by CellTiter-Glo® 2.0 Assay (Promega Corporation, G9243) with ARVO-X4 Multimode Plate Reader (Perkin-Elmer, Wellesley, MA). […]
# B-16 melanoma cells = conditions: among natural Halichondrin compounds; cited from earlier work
# L-1210 Leukemia = conditions: cited from earlier work
SMILES,"bioluminescence signal ([1]; Compound (1) with cetuximab, after Day 14)","survived mice on Day 100 ([1]; Compound (1)+CTX combination group, n=16)","ILS (%) ([1]; single agent, Q7Dx3: cetuximab 5 mg/kg, cisplatin 5 mg/kg)","ILS (%) ([1]; with cetuximab 5 mg/kg, Q7Dx3: cisplatin 5 mg/kg)",antitumor effect ([2]; 60 μg/kg i.v. Day 1 and Day 8),antitumor effect ([2]; 180 μg/kg i.v. Day 1 and Day 8),xenograft tumors on Day 15 ([2]; 180 μg/kg i.v. Day 1 and Day 8),"α-SMA positive area ([3]; single i.v. dose of 180 μg/kg, Day 6)","α-SMA positive area ([3]; single i.v. dose of 60 and 180 μg/kg, Day 3)",IC50 [4] [nM],anti-tumor activities against B-16 melanoma cells in vitro (B-16 melanoma cells),activity against L-1210 Leukemia in vivo (L-1210 Leukemia)
C=C1C[C@@H]2CC[C@@]34C[C@H]5O[C@H]6[C@@H](O3)[C@H]3O[C@H](CC[C@@H]3O[C@H]6C5O4)CC(=O)O[C@@H]3[C@@H](C)[C@@H]4O[C@@H]5C[C@]6(C[C@@H]7O[C@]8(C[C@H](C)[C@@H]9O[C@H](CN)[C@H](O)C[C@@H]9O8)C[C@H](C)[C@@H]7O6)O[C@@H]5C[C@@H]4O[C@H]3C[C@H]3O[C@@H](CC[C@@H]1O2)C[C@@H](C)C3=C (stereo in doubt) [Compound (1)],clearly reduced the bioluminescence signal in all mice,10,238,>1150,tumor regression,tumor regression,completely eradicated the xenograft tumors in all mice,significantly reduced the α-SMA positive area,significantly reduced the α-SMA positive area,0.512,,
"C=C1C[C@@H]2CC[C@@]34C[C@H]5O[C@H]6[C@@H](O3)[C@H]3O[C@H](CC[C@@H]3O[C@H]6[C@H]5O4)CC(=O)O[C@@H]3[C@@H](C)[C@@H]4O[C@@H]5C[C@]6(C[C@@H]7O[C@]8(C[C@H](C)[C@@H]9O[C@H]([C@@H](O)C[C@@H](O)CO)C[C@@H]9O8)C[C@H](C)[C@@H]7O6)O[C@@H]5C[C@@H]4O[C@H]3C[C@H]3O[C@@H](CC[C@@H]1O2)C[C@@H](C)C3=C [Halichondrin B, reference compound]",,,,,,,,,,,strongest anti-tumor activities,highly active
